Results as given in patent US20260022143A1, “Cyclic Peptide Inhibitors of IL-23” (JANSSEN PHARMACEUTICA NV, priority 2022, published 2026).
Each block holds one compound with its values, some of them ahead of it. Starred links: 1 amine or outer side, 2 acyl side, 3 side chain; linkers in the order of their positions; H or OH if unused. Positions of bridges follow the written chain, without caps; N, C: chain ends. Non-standard residues stand in square brackets, D forms with d. Residues, ends and D or L forms follow the SMILES beside them. Groups on a side chain read outwards from the residue. *: point of attachment. Me3N+(CH2)2O(CH2)2O(CH2)2CO = C[N+](C)(C)CCOCCOCCC(=O)*; Phe(4-guanidino) = N=C(N)Nc1ccc(C[C@H](N)C(=O)O)cc1; Trp(7-Me) = Cc1cccc2c(C[C@H](N)C(=O)O)c[nH]c12; Abu(4-yl) = O=C([C@H](CC[*:3])N[*:1])[*:2]; Hexanoyl(6-NMe3+) = C[N+](C)(C)CCCCCC(=O)*; Decanoyl(3,6,9-trioxa) = COCCOCCOCC(=O)*; Dab(NMeAc) = CC(=O)N(C)CC[C@H](N)C(=O)O; γGlu = O=C(O)[C@H](CCC(=O)[*:2])N[*:1]; 2Nal = N[C@@H](Cc1ccc2ccccc2c1)C(=O)O; AEF = NCCOc1ccc(C[C@H](N)C(=O)O)cc1; X24 = C[N+](C)(CCN[*:1])CC(=O)[*:2]; PEG6 = NCCOCCOCCOCCOCCOCCOCCC(=O)O; 3Pal = N[C@@H](Cc1cccnc1)C(=O)O; Myristoyl = CCCCCCCCCCCCCC(=O)*; X54 = CC(=O)N(CC[N+](C)(C)C)CC*; Lys(Me) = CNCCCC[C@H](N)C(=O)O; NMeK = CN[C@@H](CCCCN)C(=O)O; Pen = CC(C)(S)[C@H](N)C(=O)O; Lauroyl = CCCCCCCCCCCC(=O)*; αMeC = C[C@](N)(CS)C(=O)O; Thp = NC1(C(=O)O)CCOCC1; X3 = C[N+](C)(C)CCCCC*; AEEA = NCCOCCOCC(=O)O; Sar = CNCC(=O)O

Experiments:
IL-23R = molecular target: T1, IL-23R (Homo sapiens, UniProt Q5VWK5); assay: IL23R Reporter Assay; assay type: cell-based; settings: HEK293 cells containing IL-23R, IL-12RP1 and STAT-inducible firefly luciferase reporter; 10 ng/mL IL-23 (EC90); 5 h at 37° C.; read-out: IL23R Reporter Assay
T1 construct: host or cells: HEK293
T1 sequence (Q5VWK5 24-629): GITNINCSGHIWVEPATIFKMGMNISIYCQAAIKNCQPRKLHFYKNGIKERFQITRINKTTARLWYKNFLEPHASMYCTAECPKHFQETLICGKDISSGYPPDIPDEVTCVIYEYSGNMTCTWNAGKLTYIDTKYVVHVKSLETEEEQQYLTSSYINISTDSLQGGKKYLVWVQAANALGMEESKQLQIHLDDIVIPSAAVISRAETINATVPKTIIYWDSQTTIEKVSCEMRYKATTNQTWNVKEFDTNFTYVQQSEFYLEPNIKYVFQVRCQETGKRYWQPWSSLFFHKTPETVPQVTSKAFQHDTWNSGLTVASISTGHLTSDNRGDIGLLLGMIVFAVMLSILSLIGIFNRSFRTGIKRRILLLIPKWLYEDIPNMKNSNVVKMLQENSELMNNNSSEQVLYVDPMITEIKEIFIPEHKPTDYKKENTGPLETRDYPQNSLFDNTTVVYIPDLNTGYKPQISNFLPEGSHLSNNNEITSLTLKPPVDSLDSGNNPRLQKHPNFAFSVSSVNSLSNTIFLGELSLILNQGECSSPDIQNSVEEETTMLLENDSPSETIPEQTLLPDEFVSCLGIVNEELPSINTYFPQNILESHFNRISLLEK

[1] = Exposed Polar Surface Area (EPSA); assay type: physicochemical; settings: SFC on Chirex 3014 column; sample 1 mM DMSO stock; read-out: EPSA
Outline: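 Polarity descriptor in Å² derived from retention time using 8 calibration standards re-run every 20 compounds. Duplicate injections of 1 mM DMSO stock; linear 5–60% modifier gradient (20 mM ammonium formate in MeOH) with CO2 at 4 mL/min, 35 °C, on a Chirex 3014 column.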

- IC50 (IL-23R): 2.6 nM
- EPSA [1]: 153 A^2
Compound: COCCOCCOCC(=O)NCC[N+](C)(C)CC(=O)N[C@@H]1C(=O)N[C@@H](CC(=O)N(C)C)C(=O)N[C@@H]([C@@H](C)O)C(=O)N[C@@H](Cc2c[nH]c3c(C)cccc23)C(=O)N[C@@H](CCCCN(C)C(C)=O)C(=O)N[C@H](C(=O)N[C@@H](Cc2ccc(OCCN)cc2)C(=O)N[C@@H](Cc2ccc3ccccc3c2)C(=O)NC2(C(=O)N[C@@H](CCCCNC(C)=O)C(=O)N[C@@H](CC(N)=O)C(=O)N[C@@H](Cc3cccnc3)C(=O)N(C)CC(N)=O)CCOCC2)C(C)(C)SSC1(C)C [compound 148, mPEG3CO-SP6-Pen(3)-N(N(Me)2)-T-7MeW-K(NMeAc)-Pen(3)-AEF-2Nal-THP-K(Ac)-N-3Pya-Sar-CONH2] ({Decanoyl(3,6,9-trioxa)}-[X24][Pen]D(NMe2)T[Trp(7-Me)][Lys(Me)](Ac)[Pen][AEF][2Nal][Thp]K(Ac)N[3Pal][Sar]-NH2; disulfide 2-7)

- IC50 (IL-23R): 5.2 nM
- EPSA [1]: 145 A^2
Compound: Cc1cccc2c(C[C@@H]3NC(=O)[C@H]([C@@H](C)O)NC(=O)[C@H](CC(=O)N(C)C)NC(=O)[C@@H](NC(=O)CCCCC[N+](C)(C)C)C(C)(C)SSC(C)(C)[C@@H](C(=O)N[C@@H](Cc4ccc(OCCCCC[N+](C)(C)C)cc4)C(=O)N[C@@H](Cc4ccc5ccccc5c4)C(=O)NC4(C(=O)N[C@@H](CCC(=O)N(C)C)C(=O)N[C@@H](CC(N)=O)C(=O)N[C@@H](Cc5cccnc5)C(=O)N(C)CC(=O)N(C)C)CCOCC4)NC(=O)[C@H](CCC(=O)N(C)C)NC3=O)c[nH]c12 [compound 101, 5cpaCO-Pen(3)-N(N(Me)2)-T-7MeW-Q(N(Me)2)-Pen(3)-TMAPF-2Nal-THP-Q(N(Me)2)-N-3Pya-Sar-CON(Me)2] ({Hexanoyl(6-NMe3+)}-[Pen]D(NMe2)T[Trp(7-Me)]E(NMe2)[Pen]Y(X3)[2Nal][Thp]E(NMe2)N[3Pal][Sar]-NMe2; disulfide 1-6)

- IC50 (IL-23R): 0.73 nM
- EPSA [1]: 153 A^2
Compound: CC(=O)N(C)CCCC[C@@H]1NC(=O)[C@H](Cc2c[nH]c3c(C)cccc23)NC(=O)[C@H]([C@@H](C)O)NC(=O)[C@H](CC(=O)N(C)C)NC(=O)[C@@H](NC(=O)CCOCCOCC[N+](C)(C)C)C(C)(C)SSC(C)(C)[C@@H](C(=O)N[C@@H](Cc2ccc(OCCCCC[N+](C)(C)C)cc2)C(=O)N[C@@H](Cc2ccc3ccccc3c2)C(=O)NC2(C(=O)N[C@@H](CCN(C)C(C)=O)C(=O)N[C@@H](CC(N)=O)C(=O)N[C@@H](Cc3cccnc3)C(=O)N(C)CC(=O)N(C)C)CCOCC2)NC1=O [compound 301, cPEG3aCO-Pen(3)-N(N(Me)2)-T-7MeW-K(NMeAC)-Pen(3)-TMAPF-2Nal-THP-Dab(NMeAc)-N-3Pya-Sar-CON(Me)2] ({Me3N+(CH2)2O(CH2)2O(CH2)2CO}-[Pen]D(NMe2)T[Trp(7-Me)][Lys(Me)](Ac)[Pen]Y(X3)[2Nal][Thp][Dab(NMeAc)]N[3Pal][Sar]-NMe2; disulfide 1-6)

- IC50 (IL-23R): 280 nM
- EPSA [1]: 174 A^2
Compound: CCCCCCCCCCCC(=O)N[C@@H](CCC(=O)NCCOCCOCC(=O)NCCOCCOCC(=O)NCCCC[C@@H]1NC(=O)[C@@H](NC(=O)CCOCCOCC[N+](C)(C)C)C(C)(C)SSC(C)(C)[C@@H](C(=O)N[C@@H](Cc2ccc(OCCCCC[N+](C)(C)C)cc2)C(=O)N[C@@H](Cc2ccc3ccccc3c2)C(=O)NC2(C(=O)N[C@@H](CCCCN(C)C(C)=O)C(=O)N[C@@H](CC(N)=O)C(=O)N[C@@H](Cc3cccnc3)C(=O)N(C)[C@@H](CCCCNC(=O)COCCOCCNC(=O)COCCOCCNC(=O)CC[C@H](NC(=O)CCCCCCCCCCC)C(=O)O)C(N)=O)CCOCC2)NC(=O)[C@H](CCCCNC(C)=O)NC(=O)[C@H](Cc2c[nH]c3c(C)cccc23)NC(=O)[C@H]([C@@H](C)O)NC1=O)C(=O)O [compound 356, cPEG3aCO-Pen(3)-K(PEG2PEG2gEC12)-T-7MeW-K(Ac)-Pen(3)-TMAPF-2Nal-THP-K(NMeac)-N-3Pya-NMeK(PEG2PEG2gEC12)-CONH2] ({Me3N+(CH2)2O(CH2)2O(CH2)2CO}-[Pen]K([AEEA-AEEA-γGlu-Lauroyl])T[Trp(7-Me)]K(Ac)[Pen]Y(X3)[2Nal][Thp][Lys(Me)](Ac)N[3Pal][NMeK]([AEEA-AEEA-γGlu-Lauroyl])-NH2; disulfide 1-6)

- IC50 (IL-23R): 3.2 nM
- EPSA [1]: 139 A^2
Compound: CC(=O)N(C)CCCC[C@@H]1NC(=O)[C@H](Cc2c[nH]c3c(C)cccc23)NC(=O)[C@H]([C@@H](C)O)NC(=O)[C@H](CC(=O)N(C)C)NC(=O)[C@@H](NC(=O)CCOCCOCC[N+](C)(C)C)C(C)(C)SSC(C)(C)[C@@H](C(=O)N[C@@H](Cc2ccc(OCCN(CC[N+](C)(C)C)C(C)=O)cc2)C(=O)N[C@@H](Cc2ccc3ccccc3c2)C(=O)NC2(C(=O)N[C@@H](CCCCN(C)C(C)=O)C(=O)N[C@@H](CC(N)=O)C(=O)N[C@@H](Cc3cccnc3)C(=O)N(C)CC(=O)N(C)C)CCOCC2)NC1=O [compound 207, cPEG3aCO-Pen(3)-N(N(Me)2)-T-7MeW-K(NMeAc)-Pen(3)-AEF(AcCh)-2Nal-THP-K(NMeAc)-N-3Pya-Sar-CON(Me)2] ({Me3N+(CH2)2O(CH2)2O(CH2)2CO}-[Pen]D(NMe2)T[Trp(7-Me)][Lys(Me)](Ac)[Pen]Y(X54)[2Nal][Thp][Lys(Me)](Ac)N[3Pal][Sar]-NMe2; disulfide 1-6)

The remaining lines, values behind:

Compound: CCCCCCCCCCCCCC(=O)N[C@@H](CCC(=O)NCCOCCOCCOCCOCCOCCOCCC(=O)NCCOCCOCC(=O)NCCCC[C@@H](C(N)=O)N(C)C(=O)[C@H](Cc1cccnc1)NC(=O)[C@H](CC(N)=O)NC(=O)[C@H](CCCCN(C)C(C)=O)NC(=O)C1(NC(=O)[C@H](Cc2ccc3ccccc3c2)NC(=O)[C@H](Cc2ccc(OCCCCC[N+](C)(C)C)cc2)NC(=O)[C@H]2NC(=O)[C@H](CCCCNC(C)=O)NC(=O)[C@H](Cc3c[nH]c4c(C)cccc34)NC(=O)[C@H]([C@@H](C)O)NC(=O)[C@H](CC(=O)N(C)C)NC(=O)[C@@H](NC(=O)CCOCCOCC[N+](C)(C)C)C(C)(C)SSC2(C)C)CCOCC1)C(=O)O [compound 361, cPEG3aCO-Pen(3)-N(N(Me)2)-T-7MeW-K(Ac)-Pen(3)-TMAPF-2Nal-THP-K(NMeac)-N-3Pya-NMeK(PEG2PEG6gEC14)-CONH2] ({Me3N+(CH2)2O(CH2)2O(CH2)2CO}-[Pen]D(NMe2)T[Trp(7-Me)]K(Ac)[Pen]Y(X3)[2Nal][Thp][Lys(Me)](Ac)N[3Pal][NMeK]([AEEA-PEG6-γGlu-Myristoyl])-NH2; disulfide 1-6)
- IC50 (IL-23R): 12 nM
- EPSA [1]: 168 A^2

Compound: CC(=O)N(C)CCCC[C@@H]1NC(=O)[C@H](Cc2c[nH]c3c(C)cccc23)NC(=O)[C@H]([C@@H](C)O)NC(=O)[C@H](CC(=O)N(C)C)NC(=O)[C@@H](NC(=O)CCOCCOCC[N+](C)(C)C)C(C)(C)SSC(C)(C)[C@@H](C(=O)N[C@@H](Cc2ccc(NC(=N)N)cc2)C(=O)N[C@@H](Cc2ccc3ccccc3c2)C(=O)NC2(C(=O)N[C@@H](CCCCN(C)C(C)=O)C(=O)N[C@@H](CC(N)=O)C(=O)N[C@@H](Cc3cccnc3)C(=O)N(C)CC(=O)N(C)C)CCOCC2)NC1=O [compound 304, cPEG3aCO-Pen(3)-N(N(Me)2)-T-7MeW-K(NMeAc)-Pen(3)-F(4G)-2Nal-THP-K(NMeAc)-N-3Pya-Sar-CON(Me)2] ({Me3N+(CH2)2O(CH2)2O(CH2)2CO}-[Pen]D(NMe2)T[Trp(7-Me)][Lys(Me)](Ac)[Pen][Phe(4-guanidino)][2Nal][Thp][Lys(Me)](Ac)N[3Pal][Sar]-NMe2; disulfide 1-6)
- IC50 (IL-23R): 1.4 nM
- EPSA [1]: 164 A^2

Compound: CC(=O)NCCCC[C@@H]1NC(=O)[C@H](Cc2c[nH]c3ccccc23)NC(=O)[C@H]([C@@H](C)O)NC(=O)[C@H](CC(N)=O)NC(=O)[C@@H](NC(=O)[C@@H](CCCNC(=N)N)NC(=O)CCOCCOCC[N+](C)(C)C)CCSC[C@@](C)(C(=O)N[C@@H](Cc2ccc(OCCCCC[N+](C)(C)C)cc2)C(=O)N[C@@H](Cc2ccc3ccccc3c2)C(=O)NC2(C(=O)N[C@@H](CCCCNC(C)=O)C(=O)N[C@@H](CC(N)=O)C(=O)N[C@@H](Cc3cccnc3)C(=O)N(C)CC(N)=O)CCOCC2)NC1=O [compound 518, cPEG3aCO-r-Abu(1)-N-T-W-K(Ac)-aMeC(1)-TMAPF-2Nal-THP-K(Ac-N-3Pya-Sar-CONH2] ({Me3N+(CH2)2O(CH2)2O(CH2)2CO}-[dR][Abu(4-yl)]NTWK(Ac)[αMeC]Y(X3)[2Nal][Thp]K(Ac)N[3Pal][Sar]-NH2; thioether 2-7)
- IC50 (IL-23R): 18 nM
- EPSA [1]: 230 A^2

Compound: CC(=O)NCCCC[C@@H]1NC(=O)[C@H](Cc2c[nH]c3c(C)cccc23)NC(=O)[C@H]([C@@H](C)O)NC(=O)[C@H](CC(N)=O)NC(=O)[C@@H](NC(C)=O)C(C)(C)SSC(C)(C)[C@@H](C(=O)N[C@@H](Cn2cc(CC[N+](C)(C)C)nn2)C(=O)N[C@@H](Cc2ccc3ccccc3c2)C(=O)NC2(C(=O)N[C@@H](CCCCNC(C)=O)C(=O)N[C@@H](CC(N)=O)C(=O)N[C@@H](Cc3cccnc3)C(=O)N(C)CC(N)=O)CCOCC2)NC1=O [compound 253]
- IC50 (IL-23R): 40 nM
- EPSA [1]: 146 A^2
